Results on 27 compounds are retold here after patent US20070111251A1, “Chemical address tags” (priority 2003, published 2007).

The series relates to HeLa cells. The experiment in a line: Kinetic imaging of NBD-triazine probe uptake and sequestration, fitted to nested two-compartment transport model. It is filed as cell-based. To be noted: median over optimal solutions within 5% of the best fit. Here is the method:
In living cells, image data was simultaneously acquired with an automated, high-content, kinetic screening instrument equipped with an environmental chamber (see, e.g., V. C. Abraham, D. L. Taylor and J. R. Haskins, Trends in Biotechnology 22, 15 (2004); herein incorporated by reference in its entirety), as cells were incubated with the fluorescent molecules and after removal of extracellular probe. Data was analyzed off line, using an image analysis algorithm to measure the statistical pixel intensity distribution associated with fluorescence probe sequestration in the perinuclear region (see, e.g., FIG. 21; see also, e.g., G. J. Ding et al., Journal of Biological Chemistry 273, 28897 (1998); herein incorporated by reference in its entirety). Data was parametrized with a nested, two-compartment, transport model (see, e.g., W. E. Evans, J. J. Schentag and W. J. Jusko., Applied Pharmacokinetics: Principles of Therapeutic Drug Monitoring (Lippincott Williams & Wilkins, Vancouver, W.A., 1992); herein incorporated by reference in its entirety), using a statistical link function to relate the kinetic coefficient of variation (CV) of pixel intensities in the images with the concentration of probe in vesicles and cytoplasm. Optimal kinetic parameters fitting the experimental data for each probe to the system described by the two-compartment model and statistical link function were determined using the simulated annealing technique (see, e.g., M. Pincus., Oper. Res. 18, 1225 (1979); herein incorporated by reference in its entirety). The present invention is not limited to a particular mechanism. Indeed, an understanding of the mechanism is not necessary to practice the present invention.
To assess how well the model accounts for all the different kinetic traces acquired, a “PVE” (proportion of variance explained) by the model was calculated. The PVE is one minus the ratio of the sum of squared differences between observed and fitted values to the sum of squared differences between observed values and their mean. PVE values close to one indicate good fit to the nested two-compartment model. The average PVE across the probes was 0.92, with >50% of the probes yielded PVE values […]. The present invention is not limited to a particular mechanism. Indeed, an understanding of the mechanism is not necessary to practice the present invention.
Cell culture. HeLa cells were grown in RPMI+10% FCS in a 5% CO2 atmosphere at 37° C. and plated in 96-well plates at a density of 3000 cells/well 24 hours prior to the start of the experiment.
Kinetic Imaging. For influx experiments, cells on 96-well plates were switched to imaging media consisting of RPMI containing 1.0 mM Bromophenol Blue—a soluble, cell-impermeant chromophore used to suppress excitation and emission of extracellular (background) dye fluorescence-, 10 μM probe and 0.1 μM Hoescht 33258 to label the cell nuclei. Plates were then transferred to a KineticScan instrument (Cellomics, Inc., Pittsburgh, Pa.), which contains an environmentally controlled CO2/temperature/humidity chamber, and data was acquired with a 20× objective lens. Images acquisition began approximately 10 min after dye addition, using the Hoescht channel to acquire nuclear images and FITC channel to acquire the NBD image. Plate-scanning mode was used for scanning, in which the instrument builds time-stacks of images by scanning the plate multiple times, returning to the same site of the plate at every scan. For efflux experiments, dye-containing media was removed from the wells of the plate. The wells were washed twice with fresh RPMI medium, imaging media was added, and image acquisition restarted 7 min after the dye-containing media was removed. The last time points of the influx experiment served as the first time point of the efflux experiment. Plates were scanned for approximately two hours in the influx experiment and six hours for the efflux experiment, with each well imaged on average every 7 minutes. […]
Turning to `CCCCNc1nc(NCCCCCCNc2ccc([N+](=O)[O-])c3nonc23)nc(NCCc2ccc(OC)cc2)n1` [Compound D1], the “median Pap(cyto) (apparent partition coefficient between extracellular medium and cytosol)” value (shortened to “median Pap(cyto)”) is given as 12.15; the “median Pap(ves) (apparent partition coefficient between cytosol and intracellular vesicles, k(ves)in/k(ves)out)” value (from here on “median Pap(ves)”) was found to be 15.51.
Consider `COc1ccc(CCNc2nc(NCCCCCCNc3ccc([N+](=O)[O-])c4nonc34)nc(NC(C)C)n2)cc1` [Compound D2], for which the “median Pap(cyto)” value came out at 149.28; the “median Pap(ves)” value is 1.53.
With `CCCCCCCCNc1nc(NCCCCCCNc2ccc([N+](=O)[O-])c3nonc23)nc(NCCc2ccc(OC)cc2)n1` [Compound D3], the “median Pap(cyto)” value is 2.75; the “median Pap(ves)” value is listed as 101.21.
On the same counts, the results for `COc1ccc(CCNc2nc(NCCCCCCNc3ccc([N+](=O)[O-])c4nonc34)nc(NC3CCC(C)CC3)n2)cc1` (stereo not drawn) [Compound D4] are 99.03 and 0.22.
Regarding `COc1ccc(CCNc2nc(NCCCCCCNc3ccc([N+](=O)[O-])c4nonc34)nc(NC3CCCCC3C)n2)cc1` (stereo not drawn) [Compound D5], the “median Pap(cyto)” value was 9.15; the “median Pap(ves)” value worked out at 13.58.
Consider `COc1ccc(CCNc2nc(NCCCCCCNc3ccc([N+](=O)[O-])c4nonc34)nc(NCC3CCCCC3)n2)cc1` [Compound D6], for which the “median Pap(cyto)” value came out at 141.76; the “median Pap(ves)” value is recorded as 0.24.
Turning to `COc1ccc(CCNc2nc(NCCCCCCNc3ccc([N+](=O)[O-])c4nonc34)nc(NC3CCCCC3)n2)cc1` [Compound D7], the “median Pap(cyto)” value stood at 8.37; the “median Pap(ves)” value is listed as 28.56.
Consider `COc1ccc(CCNc2nc(NCCCCCCNc3ccc([N+](=O)[O-])c4nonc34)nc(NCCC(C)C)n2)cc1` [Compound D8], for which the “median Pap(cyto)” value is on record as 236.99; the “median Pap(ves)” value stood at 0.24.
As for `COc1ccc(CCNc2nc(NCCCCCCNc3ccc([N+](=O)[O-])c4nonc34)nc(NCCc3ccccc3)n2)cc1` [Compound D10], the “median Pap(cyto)” value is recorded as 9.41; the “median Pap(ves)” value was found to be 13.79.
Turning to `CC(C)Nc1nc(NCCCCCCNc2ccc([N+](=O)[O-])c3nonc23)nc(NCc2cccc(F)c2)n1` [Compound E2], the “median Pap(cyto)” value is reported as 49.62; the “median Pap(ves)” value turned out to be 8.43.
The like results for `CCCCCCCCNc1nc(NCCCCCCNc2ccc([N+](=O)[O-])c3nonc23)nc(NCc2cccc(F)c2)n1` [Compound E3] were, in that order, 4.14 and 19.86.
The like results for `CC1CCC(Nc2nc(NCCCCCCNc3ccc([N+](=O)[O-])c4nonc34)nc(NCc3cccc(F)c3)n2)CC1` (stereo not drawn) [Compound E4] were, in that order, 11.91 and 16.46.
Regarding `CC1CCCCC1Nc1nc(NCCCCCCNc2ccc([N+](=O)[O-])c3nonc23)nc(NCc2cccc(F)c2)n1` (stereo not drawn) [Compound E5], the “median Pap(cyto)” value is recorded as 5.98; the “median Pap(ves)” value was determined as 29.55.
Regarding `O=[N+]([O-])c1ccc(NCCCCCCNc2nc(NCc3cccc(F)c3)nc(NCC3CCCCC3)n2)c2nonc12` [Compound E6], the “median Pap(cyto)” value came out at 10.29; the “median Pap(ves)” value came out at 20.28.
For `O=[N+]([O-])c1ccc(NCCCCCCNc2nc(NCc3cccc(F)c3)nc(NC3CCCCC3)n2)c2nonc12` [Compound E7], the “median Pap(cyto)” value turned out to be 8.70; the “median Pap(ves)” value is given as 16.57.
For the compound `CC(C)CCNc1nc(NCCCCCCNc2ccc([N+](=O)[O-])c3nonc23)nc(NCc2cccc(F)c2)n1` [Compound E8], the “median Pap(cyto)” value is listed as 12.09; the “median Pap(ves)” value was 11.21.
Take `O=[N+]([O-])c1ccc(NCCCCCCNc2nc(NCCc3ccccn3)nc(NCc3cccc(F)c3)n2)c2nonc12` [Compound E9]: the “median Pap(cyto)” value stood at 225.98; the “median Pap(ves)” value was determined as 0.37.
Consider `O=[N+]([O-])c1ccc(NCCCCCCNc2nc(NCCc3ccccc3)nc(NCc3cccc(F)c3)n2)c2nonc12` [Compound E10], for which the “median Pap(cyto)” value stood at 5.10; the “median Pap(ves)” value was 14.90.
For `CC(C)Nc1nc(NCCCCCCNc2ccc([N+](=O)[O-])c3nonc23)nc(NCCC(c2ccccc2)c2ccccc2)n1` [Compound F2], the “median Pap(cyto)” value is listed as 79.42; the “median Pap(ves)” value amounted to 0.34.
For the compound `CCCCCCCCNc1nc(NCCCCCCNc2ccc([N+](=O)[O-])c3nonc23)nc(NCCC(c2ccccc2)c2ccccc2)n1` [Compound F3], the “median Pap(cyto)” value is on record as 21.91; the “median Pap(ves)” value is reported as 9.79.
Turning to `CC1CCC(Nc2nc(NCCCCCCNc3ccc([N+](=O)[O-])c4nonc34)nc(NCCC(c3ccccc3)c3ccccc3)n2)CC1` (stereo not drawn) [Compound F4], the “median Pap(cyto)” value is given as 1.89; the “median Pap(ves)” value stood at 43.56.
Regarding `CC1CCCCC1Nc1nc(NCCCCCCNc2ccc([N+](=O)[O-])c3nonc23)nc(NCCC(c2ccccc2)c2ccccc2)n1` (stereo not drawn) [Compound F5], the “median Pap(cyto)” value was 6.71; the “median Pap(ves)” value is given as 21.53.
Take `O=[N+]([O-])c1ccc(NCCCCCCNc2nc(NCCC(c3ccccc3)c3ccccc3)nc(NCC3CCCCC3)n2)c2nonc12` [Compound F6]: the “median Pap(cyto)” value worked out at 6.76; the “median Pap(ves)” value came to 19.41.
Regarding `O=[N+]([O-])c1ccc(NCCCCCCNc2nc(NCCC(c3ccccc3)c3ccccc3)nc(NC3CCCCC3)n2)c2nonc12` [Compound F7], the “median Pap(cyto)” value is reported as 3.33; the “median Pap(ves)” value was found to be 8.01.
Regarding `CC(C)CCNc1nc(NCCCCCCNc2ccc([N+](=O)[O-])c3nonc23)nc(NCCC(c2ccccc2)c2ccccc2)n1` [Compound F8], the “median Pap(cyto)” value was found to be 65.86; the “median Pap(ves)” value is on record as 10.07.
For `O=[N+]([O-])c1ccc(NCCCCCCNc2nc(NCCc3ccccc3)nc(NCCC(c3ccccc3)c3ccccc3)n2)c2nonc12` [Compound F10], the “median Pap(cyto)” value is reported as 1.44; the “median Pap(ves)” value was 53.44.
On the same counts, the results for `CCCCNc1nc(NCCCCCCNc2ccc([N+](=O)[O-])c3nonc23)nc(NCc2ccc(C)cc2)n1` [Compound G1] are 12.30 and 12.14.
